Reference: PubChem BioAssay (NCI)
Where “and” joins values, the source holds several entries; their conditions need not be identical. Equal entries are not always repeated.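 Briefly, cells in 96-well plates were exposed to five compound concentrations for 48 h, and endpoints were estimated by linear interpolation. GI50 marks 50% less growth. TGI marks complete inhibition of growth.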

Columns and labels:
Experiment in all cases: inhibition of tumour cell growth, NCI panel, 48 h
[1] = test system: SK-MEL-5 melanoma
[2] = test system: LOX IMVI melanoma
[3] = test system: BT-549 breast
[4] = test system: OVCAR-4 ovarian
[5] = test system: SK-OV-3 ovarian
[6] = test system: A498 renal
[7] = test system: SF-295 CNS
[8] = test system: PC-3 prostate
[9] = test system: KM12 colon
[10] = test system: 786-0 renal

Compound | GI50 [1] | TGI [1] | GI50 [2] | TGI [2] [µM] | GI50 [3] [µM] | TGI [3] | GI50 [4] | TGI [4] | GI50 [5] | TGI [5] | GI50 [6] [µM] | TGI [6] | GI50 [7] | TGI [7] | GI50 [8] | TGI [8] | GI50 [9] | TGI [9] [µM] | GI50 [10] | TGI [10]
OCCNc1nc(Nc2ccc(Cl)c(Cl)c2)nc2ccccc12 | 4.75 µM | 17.7 µM | 3.38 µM | 11.9 | 16 | 29.8 µM | 4.64 µM | 18.4 µM | 11 µM | 23.4 µM | 1.5 | 13.9 µM | 6.1 µM | 20.2 µM | 4.47 µM | 16.6 µM | 4.19 µM | 16.2 | 3.04 µM | 11 µM
CC([C@H]1CCC2C3CCC4C[C@@H](N)CC[C@]4(C)C3CC[C@@]21C)N(C)C (some centres not stated) | 1.95 µM | 5.23 µM | 1.61 µM | 3.44 | 5.9 | 28.1 µM | 9.12 µM | 38.9 µM | 13.4 µM | 30.4 µM | 9.69 | 25.9 µM | 6.46 µM | 22.5 µM | 8.52 µM | 33 µM | 7.55 µM | 21.4 | 4.99 µM | 11.6 µM
Cc1ccc(NC(=O)CSc2nnc3n(Cc4ccccc4)c(=O)c4c(C)c(C(N)=O)sc4n23)cc1 | > 100 µM | > 100 µM | > 100 µM | > 100 | 12.7 | 72 µM | > 100 µM | > 100 µM | 4.28 µM | 65.4 µM | 13.2 | 63.1 µM | 26.7 µM | 76.6 µM | > 100 µM | > 100 µM | > 100 µM | > 100 | 10 µM | 49.7 µM
O=C1OC(=O)C2CCCC3CCCC1C32 (configuration not stated) |  | > 100 µM |  | > 100 |  | > 100 µM |  | > 100 µM |  | > 100 µM |  | > 100 µM |  | > 100 µM |  | > 100 µM |  | > 100 |  | > 100 µM
CN1CCN(c2ccc(NC(=O)c3cncnc3Nc3ccc(OCc4ccccn4)c(Cl)c3)cc2)CC1 | 1.77 µM | 6.01 µM | 3.39 µM | 8.46 | 5.18 | 11.1 µM | 4.69 µM | 12.4 µM | 4.79 µM | 11.2 µM | 1.48 | 6.98 µM | 5.98 µM | 13.1 µM | 3.8 µM | 12 µM | 4.16 µM | 9.63 | 0.763 µM | 1.68 µM
CCC(=O)Nc1ccc(C)c(-c2ccc(C(=O)NCC3CC3)cc2)c1 | > 25 µM | > 25 µM | > 25 µM | > 25 | > 25 | > 25 µM | > 24.1 µM | > 25 µM | > 25 µM | > 25 µM | > 25 | > 25 µM | > 25 µM | > 25 µM | > 25 µM | > 25 µM | > 25 µM | > 25 | > 25 µM | > 25 µM
C=C(CO)[C@@H]1CC[C@]2(COC3CCCCO3)CC[C@]3(C)[C@H](CC[C@@H]4[C@@]5(C)C=C(C=O)C(=O)C(C)(C)[C@@H]5CC[C@]43C)[C@@H]12 (some centres not stated) | 0.38 µM | 1.46 µM | 0.191 µM | 0.392 | 0.221 | 0.619 µM | 0.298 µM | 0.979 µM | 1.3 µM | 2.68 µM | 0.234 | 0.938 µM | 0.506 µM | 1.79 µM | 0.237 µM | 0.973 µM | 0.555 µM | 1.94 | 0.185 µM | 0.406 µM
Clc1ccccc1CNc1c2ccccc2nc2ccccc12 | 3.09 µM | 9.34 µM | 1.57 µM | 5.93 | 4.17 | 12 µM | 2.13 µM | 8.11 µM | 5.41 µM | 12.6 µM | 1.75 | 6.94 µM | 1.59 µM | 7.31 µM | 2.24 µM | 11.9 µM | 2.03 µM | 8.28 | 2.72 µM | 11 µM
CC(CN(C)C)Oc1ccccc1NC1=C(Cl)C(=O)C(Nc2ccccc2OC(C)CN(C)C)=C(Cl)C1=O (configuration not stated) | 1.56 µM | 2.94 µM | 0.183 µM | 0.377 | 1.62 | 2.98 µM | 0.146 µM | 0.279 µM | 2.29 µM | 5.43 µM | 1.51 | 2.86 µM | 1.83 µM | 3.46 µM | 1.33 µM | 2.86 µM | 1.2 µM | 2.57 | 0.708 µM | 2.01 µM
COc1cc(-c2csc(NC(=O)Nc3ccc(C(F)(F)F)cc3)n2)cc(OC)c1OC | 1.62 µM | 3 µM | 1.59 µM | 3.15 | 2.22 | 6.94 µM | 2.02 µM | 9.07 µM | 2.68 µM | 8.33 µM | 1.99 | 5.09 µM | 1.66 µM | 4.35 µM | 1.84 µM | 8.2 µM | 2.09 µM | 7.48 | 1.62 µM | 3.54 µM
C/C(=C\c1cc(C(F)(F)F)n(-c2ccc(N)cc2)n1)[C@@H]1C[C@@H]2O[C@]2(C)CCC[C@H](C)[C@H](O)[C@@H](C)C(=O)C(C)(C)[C@@H](O)CC(=O)O1 | 0.0235 µM | > 3.71 µM | 0.0312 µM | > 11.1 | 0.065 | 3.44 µM | 2.19 µM | > 11.1 µM | 0.0575 µM | > 11.1 µM | 0.0438 |  | 0.0369 µM | 1.39 µM | 0.0297 µM | > 11.1 µM | 0.00522 µM | > 11.1 | 0.0614 µM | > 11.1 µM
CC(=O)O[C@H](C[C@H](C(C)C)N(C)C(=O)[C@@H](NC(=O)[C@H]1CCCN1C)C(C)C)c1nc(C(=O)N[C@@H](Cc2ccccc2)C[C@H](C)C(=O)O)c(C)s1 | < 0.00167 µM | 0.0243 µM | < 0.00167 µM | > 16.7 | < 0.00167 | 0.151 µM | 0.0773 µM | > 16.7 µM | 0.00203 µM | > 16.7 µM | < 0.00167 | 0.00956 µM | < 0.00167 µM | > 16.7 µM | < 0.00167 µM | > 16.7 µM | < 0.00167 µM | > 16.7 | 0.00441 µM | > 16.7 µM
Oc1ccc(C2c3ccccc3Oc3ccccc32)c2cccnc12 | 1.62 µM | 8.66 µM | 0.778 µM | > 100 | 3.15 | > 100 µM | 2.08 µM | > 100 µM | 1.75 µM | > 100 µM | 1.74 | 64.4 µM | 0.499 µM | > 100 µM | 1.9 µM | > 100 µM | 1.71 µM | > 100 | 1.64 µM | 4.85 µM
CO/N=C(\COc1ccc2oc(-c3ccccc3)cc(=O)c2c1)c1ccc(OC)cc1 | 22.2 µM | 46.7 µM | 41.4 µM | > 100 | 41.2 | > 100 µM | 19.7 µM | 73.9 µM | 59.3 µM | > 100 µM | 23.7 | 66.3 µM | 21.7 µM | 48.9 µM | 29.9 µM | 98.5 µM | 27.1 µM | > 100 | 21.9 µM | 48.9 µM
Cc1ccc(NS(=O)(=O)c2cccc(C#N)c2)c2[nH]cc(C#N)c12 | 15.6 µM and 17 µM | 33.5 µM and 43.3 µM | 16.7 µM and 14.9 µM | > 100 |  | 65.8 µM and 48.4 µM | 2.65 µM and 8.22 µM | 87.2 µM and 51.2 µM | 0.829 µM and 0.361 µM | 63.4 µM and 74.1 µM |  | 5.32 µM and 51.2 µM | 2.85 µM and 2.22 µM | 49.7 µM and 52.9 µM | 12 µM and 19 µM | 98.4 µM and > 100 µM | > 51.5 µM and 23.2 µM | > 100 | 12 µM and 7.67 µM | 55.7 µM and > 100 µM
